Measured values: PMC11871066, “Structure-based discovery of hydrocarbon-stapled paxillin peptides that block FAK scaffolding in cancer” (Nature Communications, 2025)
Where two headings read alike, the source gives them in different places. Values belong to the compound of their own block, whether it stands above or below them. Bridge positions count the residues as written; N and C are the ends. Square brackets hold non-standard residues; d marks the D form. Peptide text beside a SMILES is read from it. R8 = C=CCCCCCC[C@@](C)(N)C(=O)O; R5 = C=CCCC[C@@](C)(N)C(=O)O; S5 = C=CCCC[C@](C)(N)C(=O)O

Legend:
FAK FAT domain = target: T1, FAK FAT domain (Homo sapiens, UniProt Q05397); test: SPR binding to immobilized biotinylated FAK FAT
T1 sequence (Q05397 914-1045 limits assumed): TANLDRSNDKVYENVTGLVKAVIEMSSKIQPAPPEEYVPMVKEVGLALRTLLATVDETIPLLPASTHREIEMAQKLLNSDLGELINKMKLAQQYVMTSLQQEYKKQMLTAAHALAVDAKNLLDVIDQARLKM
Procedure: SPR binding studies were performed using biotinylated FAK FAT protein[51]. Briefly, SPR binding assays were performed on a ForteBio Pioneer FE SPR system using SPR running buffer (100 mM Tris-Cl pH 8.0, 200 mM NaCl, and 0.05% Tween-20). […] Desired immobilization levels were determined utilizing the following Eq. 1:1 Rmax=RproteinxMranalyte/MrproteinxVprotein where Rmax is the highest possible response of binding between the analyte and the protein, Rprotein is the change in response by the immobilization of the protein, Mr represents the mass of the analyte or protein, and Vprotein represents the number of binding sites on the protein. A target Rmax of approximately 100 RU was chosen.
All samples were diluted in the SPR buffer to a volume of 200 µl and injected using the OneStep gradient injection system at a flow rate of 150 µl/min. For a bulk standard control, a 3% (w\v) solution of sucrose in SPR buffer was used for injection. […] SPR data analysis utilized Qdat software (ForteBio, version 4.3.2 build 8) for normalization of the baseline prior to injection, channel alignment, and reference channel and blank subtraction.

[1] = target: T2, FAK FAT / TAMRA-paxillin LD2 L10D (Homo sapiens, UniProt Q05397); test: Fluorescence polarization competition (FAK-paxillin) assay; format: binding; conditions: for Ki: read-out: FP (Ki) data
T2 construct: assay was performed using FAK FAT protein and TAMRA-LD2 L10D peptide
T2 sequence (Q05397 919-1052): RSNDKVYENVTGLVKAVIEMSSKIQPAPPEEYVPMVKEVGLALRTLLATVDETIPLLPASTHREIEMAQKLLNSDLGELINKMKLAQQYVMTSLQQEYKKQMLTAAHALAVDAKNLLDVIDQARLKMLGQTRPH
Procedure: The IC50 was calculated using a four-parameter dose-response inhibition model, with the bottom fit constrained to the lower plateau of the binding curve.

trypsin = test: Trypsin proteolytic resistance assay; conditions: immobilized trypsin-agarose resin
Procedure: Cell permeability of peptide drugs was determined by fluorescence measurement of TAMRA-labeled peptides in 96-well plates and ClarioStar Plus plate reader using BMG ClarioStar MARS software (version 4.20). […] Percent uptake was calculated as background-subtracted fluorescence absorbed by cells/fluorescence of peptide in media-only wells, then made relative to TAMRA-Alkyne. Three biological replicates (n = 3) were performed per cell line per treatment group. Peptide proteolysis was measured using immobilized Trypsin-agarose resin (Thermo Fisher) and quantification by LC-MS. […] In vivo pharmacokinetics were performed by the UACC Analytical Chemistry Shared Resource. […] The mice were fed NIH-31 irradiated pellets (Tekland Premier, Madison, Wisconsin), and reverse osmosis water was freely available. […] The average plasma concentration versus time data were analyzed using PKSolver (version 2.0) by a noncompartmental approach.

Plasma stability = conditions: mouse plasma
[2] = one-site kinetic fit, mean ± SD of n = 2-5 biological replicates, Tris pH 8.0, read-out: SPR KD

Kd (FAK FAT domain; Rep1, read-out: SPR (KD)): > 200 µM | Kd (FAK FAT domain; Rep2, read-out: SPR (KD)): > 200 µM | Kd (FAK FAT domain; Rep3, read-out: SPR (KD)): > 200 µM | Kd (FAK FAT domain; [2]): > 200 µM
SMILES: CC(=O)N[C@@H](CC(N)=O)C(=O)N[C@@H](CC(C)C)C(=O)N[C@@H](CO)C(=O)N[C@@H](CCC(=O)O)C(=O)N[C@@H](CC(C)C)C(=O)N[C@@H](CC(=O)O)C(=O)N[C@@H](CCCNC(=N)N)C(=O)N[C@@H](CC(C)C)C(=O)N[C@]1(C)CCCC=CCCC[C@@](C)(C(=O)N[C@@H](CC(N)=O)C(N)=O)NC(=O)[C@H](CCC(=O)O)NC(=O)[C@H](CC(C)C)NC1=O [compound 1921] (Ac-NLSELDRL[R5]LE[S5]N-NH2; staple 9-12)

Kd (FAK FAT domain; [2]): 60.6 µM
SMILES: CC(=O)N[C@@H](CC(N)=O)C(=O)N[C@@H](CC(C)C)C(=O)N[C@]1(C)CCCCCCC=CCCC[C@@](C)(C(=O)N[C@@H](CCC(=O)O)C(=O)N[C@@H](CC(C)C)C(=O)N[C@@H](CC(N)=O)C(N)=O)NC(=O)[C@H](Cc2c[nH]c3ccccc23)NC(=O)[C@H](CC(C)C)NC(=O)[C@H](CCCNC(=N)N)NC(=O)[C@H](CC(=O)O)NC(=O)[C@H](CC(C)C)NC(=O)[C@H](CCC(=O)O)NC1=O [compound 2007]

Kd (FAK FAT domain; Rep1, read-out: SPR (KD)): > 200 µM | Kd (FAK FAT domain; Rep2, read-out: SPR (KD)): > 200 µM | Kd (FAK FAT domain; Rep3, read-out: SPR (KD)): > 200 µM | Kd (FAK FAT domain; Rep4, read-out: SPR (KD)): > 200 µM | SPR KD (FAK FAT domain; one-site kinetic fit, mean ± SD of n = 2-5 biological replicates, Tris pH 8.0): did not bind FAT | Kd (FAK FAT domain; [2]): > 200 µM
SMILES: CC(=O)N[C@@H](CC(N)=O)C(=O)N[C@@H](CC(C)C)C(=O)N[C@]1(C)CCCCCCC=CCCC[C@@](C)(C(=O)N[C@@H](CCC(=O)O)C(=O)N[C@@H](CCC(=O)O)C(=O)N[C@@H](CC(N)=O)C(N)=O)NC(=O)[C@H](CC(C)C)NC(=O)[C@H](CC(C)C)NC(=O)[C@H](CCCNC(=N)N)NC(=O)[C@H](CC(=O)O)NC(=O)[C@H](CCC(=O)O)NC(=O)[C@H](CCC(=O)O)NC1=O [compound 2014] (Ac-NL[R8]EEDRLL[S5]EEN-NH2; staple 3-10)
FP Ki ([1]; 25 µM FAT, 0.1 µM probe, 3 h, mean ± SD, n = 3): did not bind FAT | Ki ([1]; Rep1): > 1250 µM

Kd (FAK FAT domain; [2]): 80.6 µM
SMILES: CC(=O)N[C@@H](CC(N)=O)C(=O)N[C@@H](CC(C)C)C(=O)N[C@@H](CO)C(=O)N[C@@H](CCC(=O)O)C(=O)N[C@@]1(C)CCCC=CCCC[C@@](C)(C(=O)N[C@@H](CC(C)C)C(=O)N[C@@H](CCC(=O)O)C(=O)N[C@@H](CC(C)C)C(=O)N[C@@H](CC(N)=O)C(N)=O)NC(=O)[C@H](CC(C)C)NC(=O)[C@H](CCCNC(=N)N)NC(=O)[C@H](CC(=O)O)NC1=O [compound 1919] (Ac-NLSE[S5]DRL[S5]LELN-NH2; staple 5-9)

Kd (FAK FAT domain; [2]): 22.6 µM
SMILES: CC(=O)N[C@@H](CC(N)=O)C(=O)N[C@@H](CC(C)C)C(=O)N[C@]1(C)CCCCCCC=CCCC[C@@](C)(C(=O)N[C@@H](CCC(N)=O)C(=O)N[C@@H](CC(C)C)C(=O)N[C@@H](CC(N)=O)C(N)=O)NC(=O)[C@H](CC(C)C)NC(=O)[C@H](CC(C)C)NC(=O)[C@H](CCCNC(=N)N)NC(=O)[C@H](CC(=O)O)NC(=O)[C@H](CC(C)C)NC(=O)[C@H](CCC(N)=O)NC1=O [compound 1910] (Ac-NL[R8]QLDRLL[S5]QLN-NH2; staple 3-10)

Kd (FAK FAT domain; [2]): 27.9 µM
SMILES: CC(=O)N[C@@H](CC(N)=O)C(=O)N[C@]1(C)CCCCCCC=CCCC[C@@](C)(C(=O)N[C@@H](CC(C)C)C(=O)N[C@@H](CCC(=O)O)C(=O)N[C@@H](CC(C)C)C(=O)N[C@@H](CC(N)=O)C(N)=O)NC(=O)[C@H](CC(C)C)NC(=O)[C@H](CCCNC(=N)N)NC(=O)[C@H](CC(=O)O)NC(=O)[C@H](CC(C)C)NC(=O)[C@H](CCC(=O)O)NC(=O)[C@H](CO)NC1=O [compound 2017] (Ac-N[R8]SELDRL[S5]LELN-NH2; staple 2-9)

Second part, the compound before the results:

SMILES: CC(=O)N[C@@H](CC(N)=O)C(=O)N[C@@H](CC(C)C)C(=O)N[C@@H](CO)C(=O)N[C@@H](CCC(=O)O)C(=O)N[C@]1(C)CCCCCCC=CCCC[C@@](C)(C(=O)N[C@@H](CC(N)=O)C(N)=O)NC(=O)[C@H](CCC(=O)O)NC(=O)[C@H](CC(C)C)NC(=O)[C@H](CC(C)C)NC(=O)[C@H](CC(C)C)NC(=O)[C@H](CCCNC(=N)N)NC(=O)[C@H](CC(=O)O)NC1=O [compound 1914] (Ac-NLSE[R8]DRLLLE[S5]N-NH2; staple 5-12)
Kd (FAK FAT domain; [2]): 120 µM | Ki ([1]; Rep1): > 1250 µM | Ki ([1]; Rep2): > 1250 µM | Ki ([1]; Rep3): > 1250 µM

SMILES: CC(=O)N[C@@H](CC(N)=O)C(=O)N[C@@H](CC(C)C)C(=O)N[C@@H](CO)C(=O)N[C@@H](CCC(=O)O)C(=O)N[C@@H](CC(C)C)C(=O)N[C@@H](CC(=O)O)C(=O)N[C@@H](CCCNC(=N)N)C(=O)N[C@@]1(C)CCCC=CCCC[C@@](C)(C(=O)N[C@@H](CC(N)=O)C(N)=O)NC(=O)[C@H](CCC(=O)O)NC(=O)[C@H](CC(C)C)NC(=O)[C@H](CC(C)C)NC1=O [compound 2015] (Ac-NLSELDR[S5]LLE[S5]N-NH2; staple 8-12)
Kd (FAK FAT domain): 30.6 µM

SMILES: CC(=O)N[C@@H](CO)C(=O)N[C@@H](CC(C)C)C(=O)NCC(=O)N[C@@H](CO)C(=O)N[C@@H](CC(N)=O)C(=O)N[C@@H](CC(C)C)C(=O)N[C@]1(C)CCCCCCC=CCCC[C@@](C)(C(=O)N[C@@H](CCC(=O)O)C(=O)N[C@@H](CC(C)C)C(=O)N[C@@H](CC(N)=O)C(=O)N[C@@H](C)C(=O)N[C@H](C(=O)N[C@@H](CCC(N)=O)C(=O)N[C@@H](Cc2c[nH]cn2)C(N)=O)C(C)C)NC(=O)[C@H](CC(C)C)NC(=O)[C@H](CC(C)C)NC(=O)[C@H](CCCNC(=N)N)NC(=O)[C@H](CC(=O)O)NC(=O)[C@H](CC(C)C)NC(=O)[C@H](CCC(=O)O)NC1=O [compound 1920] (Ac-SLGSNL[R8]ELDRLL[S5]ELNAVQH-NH2; staple 7-14)
Kd (FAK FAT domain; two-site model, site 1, mean ± SD, read-out: SPR KD1): 0.9 ± 0.5 µM | Kd (FAK FAT domain; two-site model, site 2, mean ± SD, read-out: SPR KD2): 9.8 ± 6.9 µM

SMILES: CC(=O)N[C@@H](CC(N)=O)C(=O)N[C@@H](CC(C)C)C(=O)N[C@]1(C)CCCCCCC=CCCC[C@@](C)(C(=O)N[C@@H](CCC(=O)O)C(=O)N[C@@H](CC(C)C)C(=O)N[C@@H](CC(N)=O)C(N)=O)NC(=O)[C@H](CC(C)C)NC(=O)[C@H](CC(C)C)NC(=O)[C@H](CCCNC(=N)N)NC(=O)[C@H](CC(=O)O)NC(=O)[C@H](CC(C)C)NC(=O)[C@H](CCC(=O)O)NC1=O [compound 1907]
half-life at 100 µM (trypsin): 28.4 h | remaining at 0.25 h, 100 µM (trypsin): 80% | remaining at 0.5 h, 100 µM (trypsin): 73% | remaining at 1 h, 100 µM (trypsin): 72% | remaining at 2 h, 100 µM (trypsin): 73% | remaining at 3 h, 100 µM (trypsin): 62% | remaining at 4 h, 100 µM (trypsin): 58% | remaining at 8 h, 100 µM (trypsin): 56% | remaining at 24 h, 100 µM (trypsin): 43% | remaining at 48 h, 100 µM (trypsin): 31%

SMILES: CC(=O)N[C@@H](CC(N)=O)C(=O)N[C@@H](CC(C)C)C(=O)N[C@]1(C)CCCCCCC=CCCC[C@@](C)(C(=O)N[C@@H](CCC(=O)O)C(=O)N[C@@H](CC(C)C)C(=O)N[C@@H](CC(N)=O)C(N)=O)NC(=O)[C@H](CC(C)C)NC(=O)[C@H](CC(C)C)NC(=O)[C@H](CCCNC(=N)N)NC(=O)[C@H](CC(=O)O)NC(=O)[C@H](CC(C)C)NC(=O)[C@H](C)NC1=O [compound 2009]
Kd (FAK FAT domain; [2]): 3.4 µM

SMILES: CC(C)[N+](C)(CCOC(=O)C1c2ccccc2Oc2ccccc21)C(C)C [propantheline bromide]
% remaining in plasma (Plasma stability; 0 min, Rep1): 105% | % remaining in plasma (Plasma stability; 0 min, Rep2): 100% | % remaining in plasma (Plasma stability; 0 min, Rep3): 95% | % remaining in plasma (Plasma stability; 15 min, Rep1): 85% | % remaining in plasma (Plasma stability; 15 min, Rep2): 78% | % remaining in plasma (Plasma stability; 15 min, Rep3): 86% | % remaining in plasma (Plasma stability; 30 min, Rep1): 73% | % remaining in plasma (Plasma stability; 30 min, Rep2): 70% | % remaining in plasma (Plasma stability; 30 min, Rep3): 68% | % remaining in plasma (Plasma stability; 60 min, Rep1): 58% | % remaining in plasma (Plasma stability; 60 min, Rep2): 52% | % remaining in plasma (Plasma stability; 60 min, Rep3): 50% | % remaining in plasma (Plasma stability; 90 min, Rep1): 30% | % remaining in plasma (Plasma stability; 90 min, Rep2): 42% | % remaining in plasma (Plasma stability; 90 min, Rep3): 36% | % remaining in plasma (Plasma stability; 120 min, Rep1): 29% | % remaining in plasma (Plasma stability; 120 min, Rep2): 31% | % remaining in plasma (Plasma stability; 120 min, Rep3): 27% | plasma stability t1/2 (Plasma stability; n = 3): 1.1 h
